Molecular target: T1, human glucocorticoid receptor (GR) complex (Homo sapiens, UniProt P04150)
T1 construct: made in house; host or cells: insect expression system (baculovirus lysate)
T1 sequence (P04150 1-777): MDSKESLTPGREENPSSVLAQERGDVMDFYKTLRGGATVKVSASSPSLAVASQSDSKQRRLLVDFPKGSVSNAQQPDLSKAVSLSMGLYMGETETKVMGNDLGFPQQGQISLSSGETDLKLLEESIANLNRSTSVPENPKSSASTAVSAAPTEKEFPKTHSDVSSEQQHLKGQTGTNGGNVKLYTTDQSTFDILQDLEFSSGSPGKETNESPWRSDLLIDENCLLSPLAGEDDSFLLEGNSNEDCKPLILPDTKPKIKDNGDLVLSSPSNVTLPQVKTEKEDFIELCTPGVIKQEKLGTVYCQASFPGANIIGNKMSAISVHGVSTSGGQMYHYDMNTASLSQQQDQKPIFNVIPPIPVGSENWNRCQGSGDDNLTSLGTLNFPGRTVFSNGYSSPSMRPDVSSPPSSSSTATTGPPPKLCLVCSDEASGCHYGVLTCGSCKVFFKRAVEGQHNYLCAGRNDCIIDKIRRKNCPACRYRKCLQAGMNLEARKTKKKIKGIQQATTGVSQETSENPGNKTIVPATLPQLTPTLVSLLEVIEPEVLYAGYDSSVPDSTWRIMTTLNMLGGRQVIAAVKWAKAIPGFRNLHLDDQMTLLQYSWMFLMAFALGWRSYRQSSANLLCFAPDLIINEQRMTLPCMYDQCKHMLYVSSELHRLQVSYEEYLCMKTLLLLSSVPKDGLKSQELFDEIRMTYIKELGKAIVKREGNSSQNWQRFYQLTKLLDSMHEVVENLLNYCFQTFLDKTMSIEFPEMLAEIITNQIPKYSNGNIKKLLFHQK
Test: Glucocorticoid receptor competitive binding assay (fluorescence polarization)
Conditions: competition with TAMRA-labeled dexamethasone
Method in brief: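 Fluorescence polarization competition against TAMRA-labelled dexamethasone (50 μL of 15 nM added) for human GR complex from baculovirus insect-cell lysate, diluted 1:170, in TES/KCl/molybdate buffer, pH 7.4.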

activity in the GR binding assay | Structure (SMILES)
potent activity | COc1ccc(F)cc1C(C)(C)CC(O)(CN1CCN(C(C)=O)c2ccccc21)C(F)(F)F (stereo not drawn) [1-{4-[4-(5-Fluoro-2-methoxyphenyl)-2-hydroxy-4-methyl-2-trifluoromethylpentyl]-3,4-dihydro-2H-quinoxalin-1-yl}ethanone]
potent activity | Cc1noc(C)c1-c1ccc(O)c(C(C)(C)CC(O)(Cn2ccc(=O)c3ccccc32)C(F)(F)F)c1 (stereo not drawn) [1-{4-[5-(3,5-Dimethylisoxazol-4-yl)-2-hydroxyphenyl]-2-hydroxy-4-methyl-2-trifluoromethylpentyl}-1H-quinolin-4-one]
potent activity | COc1ccc(-c2c(C)noc2C)cc1C(C)(C)CC(O)(Cn1ccc(=O)c2ccccc21)C(F)(F)F (stereo not drawn) [1-{4-[5-(3,5-Dimethylisoxazol-4-yl)-2-methoxyphenyl]-2-hydroxy-4-methyl-2-trifluoromethylpentyl}-1H-quinolin-4-one]
potent activity | CC(=O)COc1ccc(F)cc1C(C)(C)CC(O)(Cn1ccc(=O)c2ccccc21)C(F)(F)F (stereo not drawn) [1-{4-[5-Fluoro-2-(2-oxopropoxy)phenyl]-2-hydroxy-4-methyl-2-trifluoromethylpentyl}-1H-quinolin-4-one]
potent activity | COc1ccc(F)cc1C(C)(C)CC(O)(CN1CCS(=O)(=O)c2ccccc21)C(F)(F)F (stereo not drawn) [2-(1,1-Dioxo-2,3-dihydro-1H-1λ^6-benzo[1,4]thiazin-4-ylmethyl)-1,1,1-trifluoro-4-(5-fluoro-2-methoxyphenyl)-4-methylpentan-2-ol]
potent activity | COc1ccc(F)cc1C(C)(C)CC(O)(CN1CCSc2ccccc21)C(F)(F)F (stereo not drawn) [2-(2,3-Dihydrobenzo[1,4]thiazin-4-ylmethyl)-1,1,1-trifluoro-4-(5-fluoro-2-methoxyphenyl)-4-methylpentan-2-ol]
potent activity | COc1ccc(F)cc1C(C)(C)CC(O)(CN1CCc2ccccc21)C(F)(F)F (stereo not drawn) [2-(2,3-Dihydroindol-1-ylmethyl)-1,1,1-trifluoro-4-(5-fluoro-2-methoxyphenyl)-4-methylpentan-2-ol]
potent activity | COc1ccc(F)cc1C(C)(C)CC(O)(CN1CCNc2ccccc21)C(F)(F)F (stereo not drawn) [2-(3,4-Dihydro-2H-quinoxalin-1-ylmethyl)-1,1,1-trifluoro-4-(5-fluoro-2-methoxyphenyl)-4-methylpentan-2-ol]
potent activity | COc1ccc(F)cc1C(C)(C)CC(O)(CN1CCN(c2ncc(C(F)(F)F)cc2Cl)CC1)C(F)(F)F (stereo not drawn) [2-[4-(3-Chloro-5-trifluoromethylpyridin-2-yl)piperazin-1-ylmethyl]-1,1,1-trifluoro-4-(5-fluoro-2-methoxyphenyl)-4-methylpentan-2-ol]
potent activity | COc1ccc(F)cc1C(C)(C)CC(O)(Cn1cc(C(F)(F)F)cc(Cl)c1=O)C(F)(F)F (stereo not drawn) [3-Chloro-1-[4-(5-fluoro-2-methoxyphenyl)-2-hydroxy-4-methyl-2-trifluoromethylpentyl]-5-trifluoromethyl-1H-pyridin-2-one]
potent activity | CC(C)(CC(O)(Cn1ccc(=O)c2ccccc21)C(F)(F)F)c1cccc(C=O)c1 (stereo not drawn) [3-[4,4,4-Trifluoro-3-hydroxy-1,1-dimethyl-3-(4-oxo-4H-quinolin-1-ylmethyl)butyl]benzaldehyde]
potent activity | COc1ccc(C=O)cc1C(C)(C)CC(O)(Cn1ccc(=O)c2ccccc21)C(F)(F)F (stereo not drawn) [4-Methoxy-3-[4,4,4-trifluoro-3-hydroxy-1,1-dimethyl-3-(4-oxo-4H-quinolin-1-ylmethyl)butyl]benzaldehyde]
potent activity | COc1ccc(F)cc1C(C)(C)CC(O)(CN1CC(C)N(C=O)C(C)C1)C(F)(F)F (stereo not drawn) [4-[4-(5-Fluoro-2-methoxyphenyl)-2-hydroxy-4-methyl-2-trifluoromethylpentyl]-2,6-dimethylpiperazine-1-carbaldehyde]
potent activity | CC(C)(CC(O)(Cn1ccc(=O)c2cc(Cl)ccc21)C(F)(F)F)c1cc(F)ccc1O (stereo not drawn) [6-Chloro-1-[4-(5-fluoro-2-hydroxyphenyl)-2-hydroxy-4-methyl-2-trifluoromethylpentyl]-1H-quinolin-4-one]
potent activity | COc1ccc(F)cc1C(C)(C)CC(O)(Cn1ccc(=O)c2cc(Cl)ccc21)C(F)(F)F (stereo not drawn) [6-Chloro-1-[4-(5-fluoro-2-methoxyphenyl)-2-hydroxy-4-methyl-2-trifluoromethylpentyl]-1H-quinolin-4-one]
potent activity | CC(C)(CC(O)(Cn1ccc(=O)c2cc(F)ccc21)C(F)(F)F)c1cc(F)ccc1O (stereo not drawn) [6-Fluoro-1-[4-(5-fluoro-2-hydroxyphenyl)-2-hydroxy-4-methyl-2-trifluoromethylpentyl]-1H-quinolin-4-one]
potent activity | COc1ccc(F)cc1C(C)(C)CC(O)(Cn1ccc(=O)c2cc(F)ccc21)C(F)(F)F (stereo not drawn) [6-Fluoro-1-[4-(5-fluoro-2-methoxyphenyl)-2-hydroxy-4-methyl-2-trifluoromethylpentyl]-1H-quinolin-4-one]
potent activity | CC(C)(CC(O)(Cn1ccc(=O)c2ccc(Cl)cc21)C(F)(F)F)c1cc(F)ccc1O (stereo not drawn) [7-Chloro-1-[4-(5-fluoro-2-hydroxyphenyl)-2-hydroxy-4-methyl-2-trifluoromethylpentyl]-1H-quinolin-4-one]
potent activity | COc1ccc(F)cc1C(C)(C)CC(O)(Cn1ccc(=O)c2ccc(Cl)cc21)C(F)(F)F (stereo not drawn) [7-Chloro-1-[4-(5-fluoro-2-methoxyphenyl)-2-hydroxy-4-methyl-2-trifluoromethylpentyl]-1H-quinolin-4-one]
potent activity | COc1ccc(F)cc1C(C)(C)CC(O)(Cn1ccc(=O)c2ccc(F)cc21)C(F)(F)F (stereo not drawn) [7-Fluoro-1-[4-(5-fluoro-2-methoxyphenyl)-2-hydroxy-4-methyl-2-trifluoromethylpentyl]-1H-quinolin-4-one]
potent activity | CC(C)(CC(O)(Cn1ccc(=O)c2cccc(F)c21)C(F)(F)F)c1cc(F)ccc1O (stereo not drawn) [8-Fluoro-1-[4-(5-fluoro-2-hydroxyphenyl)-2-hydroxy-4-methyl-2-trifluoromethylpentyl]-1H-quinolin-4-one]
potent activity | COc1ccc(F)cc1C(C)(C)CC(O)(Cn1ccc(=O)c2cccc(F)c21)C(F)(F)F (stereo not drawn) [8-Fluoro-1-[4-(5-fluoro-2-methoxyphenyl)-2-hydroxy-4-methyl-2-trifluoromethylpentyl]-1H-quinolin-4-one]
potent activity | CC(C)(CC(O)(CN1CCN(C(=O)c2ccco2)CC1)C(F)(F)F)c1cc(F)ccc1O (stereo not drawn) [{4-[4-(5-Fluoro-2-hydroxyphenyl)-2-hydroxy-4-methyl-2-trifluoromethylpentyl]piperazin-1-yl}furan-2-ylmethanone]
potent activity | COc1ccc(F)cc1C(C)(C)CC(O)(CN1CCN(C(=O)c2ccco2)CC1)C(F)(F)F (stereo not drawn) [{4-[4-(5-Fluoro-2-methoxyphenyl)-2-hydroxy-4-methyl-2-trifluoromethylpentyl]piperazin-1-yl}furan-2-ylmethanone]

— patent US7579469B2, “Glucocorticoid mimetics, methods of making them, pharmaceutical compositions, and uses thereof” (Boehringer Ingelheim Pharmaceuticals, Inc., priority 2003, dated 2009)
